In one series the test system is interferon (α). Briefly: Cytokine Induction in Human Cells: interferon (α) by ELISA. Format: cell-based. The settings on record: human PBMC, 18 to 24 hours incubation, compounds generally tested at 30-0.014 μM; read-out: Lowest Effective Concentration Interferon. The source says:
(§1) An in vitro human blood cell system is used to assess cytokine induction. Activity is based on the measurement of interferon and tumor necrosis factor (α) (IFN and TNF, respectively) secreted into culture media as described by Testerman et. al. In “Cytokine Induction by the Immunomodulators Imiquimod and S-27609”, Journal of Leukocyte Biology, 58, 365-372 (September, 1995).
(§2) Whole blood from healthy human donors is collected by venipuncture into EDTA vacutainer tubes. Peripheral blood mononuclear cells (PBMC) are separated from whole blood by density gradient centrifugation using Histopaque®-1077. Blood is diluted 1:1 with Dulbecco's Phosphate Buffered Saline (DPBS) or Hank's Balanced Salts Solution (HBSS). The PBMC layer is collected and washed twice with DPBS or HBSS and resuspended at 4×10^6 cells/mL in RPMI complete. The PBMC suspension is added to 48 well flat bottom sterile tissue culture plates (Costar, Cambridge, Mass. or Becton Dickinson Labware, Lincoln Park, N.J.) containing an equal volume of RPMI complete media containing test compound.
(§3) The compounds are solubilized in dimethyl sulfoxide (DMSO). The DMSO concentration should not exceed a final concentration of 1% for addition to the culture wells. The compounds are generally tested at concentrations ranging from 30-0.014 μM.
(§4) The solution of test compound is added at 60 μM to the first well containing RPMI complete and serial 3 fold dilutions are made in the wells. The PBMC suspension is then added to the wells in an equal volume, bringing the test compound concentrations to the desired range (30-0.014 μM). The final concentration of PBMC suspension is 2×10^6 cells/mL. The plates are covered with sterile plastic lids, mixed gently and then incubated for 18 to 24 hours at 37° C. in a 5% carbon dioxide atmosphere.
(§5) Following incubation the plates are centrifuged for 10 minutes at 1000 rpm (˜200×g) at 4° C. The cell-free culture supernatant is removed with a sterile polypropylene pipet and transferred to sterile polypropylene tubes. Samples are maintained at −30 to −70° C. until analysis. The samples are analyzed for interferon (α) by ELISA and for tumor necrosis factor (α) by ELISA or IGEN Assay
Interferon (α) concentration is determined by ELISA using a Human Multi-Species kit from PBL Biomedical Laboratories, New Brunswick, N.J. Results are expressed in pg/mL.
(§6) The table below lists the lowest concentration found to induce interferon and the lowest concentration found to induce tumor necrosis factor for each compound.
In general terms: In an ELISA, binding on a coated surface is turned into a signal by an enzyme label.

Series [1] relates to tumor necrosis factor (α). Briefly: Cytokine Induction in Human Cells: tumor necrosis factor (α) by ELISA or IGEN Assay. In kind it is cell-based. More on the design: key to Lowest Effective Concentration Tumor Necrosis Factor: A “*” indicates that no induction was seen at any of the tested concentrations. Conditions: human PBMC, 18 to 24 hours incubation, compounds generally tested at 30-0.014 μM; for minimal effective concentration: read-out: Lowest Effective Concentration Tumor Necrosis Factor.
Description: as §1, §2, §3, §4, §5
Tumor necrosis factor (α) (TNF) concentration is determined using ELISA kits available from Biosource International, Camarillo, Calif. Alternately, the TNF concentration can be determined by Origen® M-Series Immunoassay and read on an IGEN M-8 analyzer from IGEN International, Gaithersburg, Md. The immunoassay uses a human TNF capture and detection antibody pair from Biosource International, Camarillo, Calif. Results are expressed in pg/mL.
as §6

SMILES strings stand for the structures. Structures can show the parent of a compound that is named as a salt.

Regarding `CCOCc1nc2c(N)nc(C)cc2n1CCCCNC(=O)N1CCOCC1` (as salt: salt) [Example 10, N-{4-[4-amino-2-(ethoxymethyl)-6-methyl-1H-imidazo[4,5-c]pyridin-1-yl]butyl}morpholin-4-ylcarboxamide], the melting point (in general, the temperature of the solid-liquid transition) was in the range of 156.5 to 159.5 °C.
`CCCCc1nc2c(N)nc(C)c(C)c2n1CCCCNS(=O)(=O)c1ccc(F)cc1` (hydrate or solvate) [Example 3, N-[4-(4-Amino-2-butyl-6,7-dimethyl-1H-imidazo[4,5-c]pyridin-1-yl)butyl]-4-fluorobenzenesulfonamide Hydrate]: the melting point was in the range of 133.1 to 133.7 °C.
`CCCCc1nc2c(N)nc(C)c(C)c2n1CCCCNC(=S)Nc1ccccc1` (hydrate or solvate) [Example 5, N-[4-(4-Amino-2-butyl-6,7-dimethyl-1H-imidazo[4,5-c]pyridin-1-yl)butyl]-N′-phenylthiourea Hydrate]: the melting point lay in the range of 160 to 160.8 °C.
For the compound `CCCCc1nc2c(N)nc(C)c(C)c2n1CCCCNS(C)(=O)=O` [Example 2, N-[4-(4-Amino-2-butyl-6,7-dimethyl-1H-imidazo[4,5-c]pyridin-1-yl)butyl]methanesulfonamide], the melting point is 130 to 130.5 °C. The minimal effective concentration with interferon (α) was determined as 0.0046 µM. Besides, in series [1], the minimal effective concentration is 0.01 µM.
The matching figures for `CCCCc1nc2c(N)nc(C)c(C)c2n1CCCCNC(=O)Nc1ccccc1` [Example 4, N-[4-(4-Amino-2-butyl-6,7-dimethyl-1H-imidazo[4,5-c]pyridin-1-yl)butyl]-N′-phenylurea]: 195.8 to 196.8 °C, 0.12 µM and 0.37 µM.
Compound `CCCCc1nc2c(N)nc(C)c(C)c2n1CCCCNS(=O)(=O)N(C)C` [Example 6, N′-[4-(4-Amino-2-butyl-6,7-dimethyl-1H-imidazo[4,5-c]pyridin-1-yl)butyl]-N,N-dimethylsulfamide] yielded a melting point of 129.5 to 131 °C. The minimal effective concentration with interferon (α) is 0.01 µM. For the same compound, the minimal effective concentration in series [1] was 0.01 µM.
In turn, `Cc1nc(N)c2nc(C)n(CCCCNS(C)(=O)=O)c2c1C` [Example 7, N-[4-(4-amino-2,6,7-trimethyl-1H-imidazo[4,5-c]pyridin-1-yl)butyl]methanesulfonamide] yielded a melting point of 228 to 230 °C. Besides, the minimal effective concentration with interferon (α) was 0.37 µM. In series [1], the “Lowest Effective Concentration Tumor Necrosis Factor” value is “*”.
`CCOCc1nc2c(N)nc(C)c(C)c2n1CCCCNS(C)(=O)=O` [Example 8, N-{4-[4-amino-2-(ethoxymethyl)-6,7-dimethyl-1H-imidazo[4,5-c]pyridin-1-yl]butyl}methanesulfonamide] showed a melting point of 165 to 167 °C. Moreover, the minimal effective concentration with interferon (α) was found to be 0.04 µM. In series [1], the minimal effective concentration came to 10 µM.
Regarding `Cc1nc(N)c2ncn(CCCCNC(=O)N3CCOCC3)c2c1C` [Example 11, N-[4-(4-amino-6,7-dimethyl-1H-imidazo[4,5-c]pyridin-1-yl)butyl]morpholin-4-ylcarboxamide], the melting point was 163.7 to 167 °C.
On to `CCOCc1nc2c(N)nc(C)c(C)c2n1CCC1CCN(C(=O)N2CCOCC2)CC1` [Example 12, 2-(ethoxymethyl)-6,7-dimethyl-1-{2-[1-(morpholin-4-ylcarbonyl)piperidin-4-yl]ethyl}-1H-imidazo[4,5-c]pyridin-4-amine], for which the melting point was in the range of 158.1 to 160.5 °C.
`Cc1nc(N)c2nc(C)n(CCCNC(=O)N3CCOCC3)c2c1C` [Example 13, N-[3-(4-amino-2,6,7-trimethyl-1H-imidazo[4,5-c]pyridin-1-yl)propyl]morpholin-4-ylcarboxamide] returned a melting point of 128.9 to 129.7 °C.
Regarding `CCOCc1nc2c(N)nc(C)c(C)c2n1CCCNC(=O)N1CCOCC1` [Example 14, N-{3-[4-amino-2-(ethoxymethyl)-6,7-dimethyl-1H-imidazo[4,5-c]pyridin-1-yl]propyl}morpholin-4-ylcarboxamide], the melting point lay within 140.5 to 142.2 °C.
Same read-out and setting: the result for `Cc1nc(N)c2nc(C)n(CCNC(=O)N3CCOCC3)c2c1C` [Example 15, N-[2-(4-amino-2,6,7-trimethyl-1H-imidazo[4,5-c]pyridin-1-yl)ethyl]morpholin-4-ylcarboxamide] reads 219 to 221 °C.
In the case of `CCOCc1nc2c(N)nc(C)c(C)c2n1CCC1CCN(C(=O)N(C)c2ccccc2)CC1` [Example 68, 4-{2-[4-amino-2-(ethoxymethyl)-6,7-dimethyl-1H-imidazo[4,5-c]pyridin-1-yl]ethyl}-N-methyl-N-phenylpiperidine-1-carboxamide], the minimal effective concentration in the series with interferon (α) was 0.37 µM; in series [1], 1.11 µM.
As to `CCOCc1nc2c(N)nc(C)c(C)c2n1CCC1CCN(C(=O)NS(=O)(=O)c2ccccc2)CC1` [Example 69], the minimal effective concentration with interferon (α) turned out to be 3.33 µM. Besides, the “Lowest Effective Concentration Tumor Necrosis Factor” value in series [1] is “*”.
With `CCOCc1nc2c(N)nc(C)c(C)c2n1CCC1CCN(C(=O)NS(=O)(=O)c2ccc(Cl)cc2)CC1` [Example 70], the minimal effective concentration in the series on interferon (α) amounted to 10 µM. Besides, the “Lowest Effective Concentration Tumor Necrosis Factor” value in series [1] is listed as “*”.
With `CCOCc1nc2c(N)nc(C)c(C)c2n1CCC1CCN(C(=S)Nc2ccccc2)CC1` [Example 71], the results for the minimal effective concentration (in the series with interferon (α); in series [1]) were 0.37 µM and 3.33 µM, respectively.
Consider `CCOCc1nc2c(N)nc(C)c(C)c2n1CCC1CCN(C(=S)NCCc2ccccc2)CC1` [Example 72], for which the minimal effective concentration with interferon (α) amounted to 0.37 µM; in series [1] it was 1.11 µM.
For `CCOCc1nc2c(N)nc(C)c(C)c2n1CCC1CCN(C(=S)Nc2ccc(OC)cc2)CC1` [Example 73], the minimal effective concentration came out at 0.12 µM with interferon (α) and 1.11 µM in series [1].
Turning to `CCOCc1nc2c(N)nc(C)c(C)c2n1CCC1CCN(C(=S)NC(=O)c2ccco2)CC1` [Example 74, N-[(4-{2-[4-amino-2-(ethoxymethyl)-6,7-dimethyl-1H-imidazo[4,5-c]pyridin-1-yl]ethyl}piperidin-1-yl)carbonothioyl]-2-furamide], the minimal effective concentration with interferon (α) turned out to be 0.37 µM; in series [1], 1.11 µM.

The values above are taken from patent US6903113B2, “Urea substituted imidazopyridines” (3M Innovative Properties Company, priority 2000, dated 2005).
